Data: PubChem BioAssay AID610 (The Scripps Research Institute Molecular Screening Center, 2007)
Active and inactive are the calls of the source. How the calls were made is not given here.

Target: Nuclear receptor ROR-alpha (Homo sapiens) (UniProt P35398)
Assay: inhibitors of orphan receptor RORA, dose response, cell-based (AID 610)
Conditions: cell-based RORA reporter, inhibition

Nuclear receptor ROR-alpha (Homo sapiens), sequence (P35398 whole entry, looked up): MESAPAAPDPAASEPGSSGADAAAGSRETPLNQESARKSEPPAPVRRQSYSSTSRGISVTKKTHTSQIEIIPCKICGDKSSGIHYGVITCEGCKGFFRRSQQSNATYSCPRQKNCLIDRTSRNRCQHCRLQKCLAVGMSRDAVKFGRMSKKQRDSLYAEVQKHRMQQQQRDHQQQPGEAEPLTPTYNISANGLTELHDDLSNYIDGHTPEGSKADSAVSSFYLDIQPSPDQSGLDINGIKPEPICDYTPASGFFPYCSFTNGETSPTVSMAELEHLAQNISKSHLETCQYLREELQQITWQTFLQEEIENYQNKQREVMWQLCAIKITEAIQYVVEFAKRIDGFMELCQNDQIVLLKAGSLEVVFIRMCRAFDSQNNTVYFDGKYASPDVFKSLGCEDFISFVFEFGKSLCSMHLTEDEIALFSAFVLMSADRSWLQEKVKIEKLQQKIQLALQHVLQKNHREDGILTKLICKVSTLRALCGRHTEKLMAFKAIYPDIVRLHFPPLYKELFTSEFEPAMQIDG

Compound	IC50
COc1cc(/C=N/O)ccc1OCc1ccc(C(=O)O)cc1	0.67 µM
CC(=O)CC1OC(=O)C(Br)=C1NCc1ccccc1 (centres undefined)	inactive
COc1cccc2sc(Nc3nc(-c4ccccn4)cs3)nc12	4.57 µM
COC(=O)C1=C(CN2CCCc3ccccc32)NC(=O)NC1c1ccc(F)cc1 (centres undefined)	6.23 µM
O=S(=O)(c1ccc2c(c1)C(=NO)c1cc(S(=O)(=O)N3CCCCC3)ccc1-2)N1CCCCC1	2.48 µM

Results, then the molecule that gave them:

IC50	Compound
> 99 µM (inactive)	O=C(O)CCCCCN1C(=O)CSC1=S
1.52 µM	O=C(/C=C\Nc1ccc2c(c1)OCO2)c1ccccn1
2.09 µM	Cc1ccc(C(=O)/C=C/Nc2ccccn2)cc1
8.35 µM	O=C(/C=C\Nc1ccccn1)c1ccc(Cl)cc1
